Inconclusive results and toxic doses are left out.

Data on 23 compounds can be found in PubChem BioAssay AID248 (DTP/NCI, 2004).

The experiment relates to L1210 leukemia ip in BDF1 mice, survival T/C. The experiment in a line: NCI In Vivo Anticancer Drug Screen. Data for tumor model L1210 Leukemia (intraperitoneal) in B6D2F1 (BDF1) mice. The settings on record: endpoint: mean survival time, higher = longer survival. A digest of the protocol: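 Transplantable tumor model; survival measured in treated vs vehicle control mice. Value = treated/control.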

The mark [1] stands for this setting: dose: 100.0 mg/kg/injection, schedule: Q01DX001 (ip), vehicle: saline.
The mark [2] stands for this setting: dose: 200.0 mg/kg/injection, schedule: Q01DX001 (ip), vehicle: saline.
Where [3] appears, read: dose: 400.0 mg/kg/injection, schedule: Q01DX001 (ip), vehicle: saline.
Setting [4] is: dose: 100.0 mg/kg/injection, schedule: Q01DX001 (ip), vehicle: other.
[5] abbreviates: dose: 200.0 mg/kg/injection, schedule: Q01DX001 (ip), vehicle: other.
[6] abbreviates: dose: 400.0 mg/kg/injection, schedule: Q01DX001 (ip), vehicle: other.
[7] abbreviates: dose: 100.0 mg/kg/injection, schedule: Q04DX003 (ip), vehicle: Klucel (hydroxypropylcellulose) (HPC).
[8] abbreviates: dose: 200.0 mg/kg/injection, schedule: Q04DX003 (ip), vehicle: Klucel (hydroxypropylcellulose) (HPC).
Setting [9] is: dose: 400.0 mg/kg/injection, schedule: Q04DX003 (ip), vehicle: Klucel (hydroxypropylcellulose) (HPC).
[10] abbreviates: dose: 100.0 mg/kg/injection, schedule: Q04DX003 (ip), vehicle: saline.
[11] abbreviates: dose: 200.0 mg/kg/injection, schedule: Q04DX003 (ip), vehicle: saline.
The mark [12] stands for this setting: dose: 400.0 mg/kg/injection, schedule: Q04DX003 (ip), vehicle: saline.
Setting [13] is: dose: 100.0 mg/kg/injection, schedule: Q01DX009 (ip), vehicle: Klucel (hydroxypropylcellulose) (HPC).
[14] abbreviates: dose: 200.0 mg/kg/injection, schedule: Q01DX009 (ip), vehicle: Klucel (hydroxypropylcellulose) (HPC).
[15] abbreviates: dose: 400.0 mg/kg/injection, schedule: Q01DX009 (ip), vehicle: Klucel (hydroxypropylcellulose) (HPC).

On to `CC[As](=O)(O)c1ccccc1`, for which the T/C (dose: 6.25 mg/kg/injection, schedule: Q01DX009 (ip), vehicle: saline) is 89 % of control and the T/C (dose: 12.5 mg/kg/injection, schedule: Q01DX009 (ip), vehicle: saline) is 89 % of control.
Turning to `NCCCOC12CC3CC(CC(C3)C1)C2`, the T/C is 106 % of control (dose: 10.0 mg/kg/injection, schedule: Q04DX002 (ip), vehicle: saline); 117 % of control (dose: 20.0 mg/kg/injection, schedule: Q04DX002 (ip), vehicle: saline); 102 % of control (dose: 40.0 mg/kg/injection, schedule: Q04DX002 (ip), vehicle: saline).
As to `C/C=C1/C(=O)O[C@]23C=C[C@@H]4C(C(=O)OC)=CO[C@H](O[C@@H]12)[C@@H]43`, the T/C by setting is: under setting [1], 104 % of control; under setting [2], 103 % of control; under setting [3], 98 % of control.
Regarding `CCOP(=S)(S)OCC.[Cr]`, the T/C runs as follows: (dose: 50.0 mg/kg/injection, schedule: Q01DX001 (ip), vehicle: other) 98 % of control; under setting [4], 98 % of control; under setting [5], 102 % of control; under setting [6], 96 % of control.
As to `CS(=O)CC(O)(c1ccccc1)c1ccccc1` (configuration not stated), the T/C reads like this: (dose: 50.0 mg/kg/injection, schedule: Q01DX001 (ip), vehicle: saline) 102 % of control; under setting [1], 101 % of control; under setting [2], 98 % of control; under setting [3], 97 % of control.
`COc1nc2ccccc2c2ccccc12`: the T/C by setting is: under setting [4], 105 % of control; under setting [5], 102 % of control; under setting [6], 107 % of control.
Turning to `CC(C(=O)O)C(NC(=O)OCc1ccccc1)C(=O)O` (configuration not stated), the T/C was 93 % of control (dose: 100.0 mg/kg/injection, schedule: Q01DX009 (ip), vehicle: other); 99 % of control (dose: 100.0 mg/kg/injection, schedule: Q04DX003 (ip), vehicle: other); 91 % of control (dose: 200.0 mg/kg/injection, schedule: Q01DX009 (ip), vehicle: other); 99 % of control (dose: 200.0 mg/kg/injection, schedule: Q04DX003 (ip), vehicle: other); 98 % of control (dose: 400.0 mg/kg/injection, schedule: Q01DX009 (ip), vehicle: other); 98 % of control (dose: 400.0 mg/kg/injection, schedule: Q04DX003 (ip), vehicle: other).
With `Cc1ccc(C)c(OCC(=O)O)c1`, the T/C was 97 % of control under setting [7], 101 % of control under setting [8] and 101 % of control under setting [9].
`OC(c1ccccc1)(c1ccccc1)C1CCCCC1=C(c1ccccc1)c1ccccc1` (configuration not stated): the T/C runs as follows: under setting [1], 88 % of control; (dose: 100.0 mg/kg/injection, schedule: Q01DX009 (ip), vehicle: saline) 86 % of control; under setting [10], 96 % of control; under setting [2], 93 % of control; under setting [11], 94 % of control; under setting [3], 89 % of control. In addition, the T/C is, setting by setting: (dose: 400.0 mg/kg/injection, schedule: Q01DX009 (ip), vehicle: saline) 86 % of control; under setting [12], 96 % of control.
On to `COc1ccc([N+](=O)[O-])cc1NC(=O)Nc1ccc(S(N)(=O)=O)cc1`, for which the T/C is 101 % of control under setting [13], 92 % of control under setting [14] and 94 % of control under setting [15].
For `C=CCOc1ccc(C=O)cc1OCC=C`, the T/C is 101 % of control under setting [7], 96 % of control under setting [8] and 101 % of control under setting [9].
As for `S=C(Nc1ccc(Cl)c(Cl)c1)SCc1ccc2c(c1)OCO2`, the T/C (dose: 37.5 mg/kg/injection, schedule: Q01DX009 (ip), vehicle: saline) is 120 % of control; the T/C (dose: 75.0 mg/kg/injection, schedule: Q04DX003 (ip), vehicle: saline with Tween-80) is 101 % of control; the T/C (dose: 150.0 mg/kg/injection, schedule: Q01DX009 (ip), vehicle: saline) is 102 % of control; the T/C (dose: 150.0 mg/kg/injection, schedule: Q04DX003 (ip), vehicle: saline with Tween-80) was 104 % of control; the T/C (dose: 300.0 mg/kg/injection, schedule: Q04DX003 (ip), vehicle: saline with Tween-80) was 123 % of control.
On to `O=[N+]([O-])c1ccc(/C=C/c2ccccn2)s1`, for which the T/C reads like this: under setting [7], 96 % of control; (dose: 100.0 mg/kg/injection, schedule: Q04DX003 (ip), vehicle: water) 101 % of control; under setting [8], 112 % of control; (dose: 200.0 mg/kg/injection, schedule: Q04DX003 (ip), vehicle: water) 98 % of control; under setting [9], 96 % of control; (dose: 400.0 mg/kg/injection, schedule: Q04DX003 (ip), vehicle: water) 97 % of control.
Turning to `O=C(Nc1cc(Cl)ccc1Cl)c1cccc(Cl)c1`, the T/C reads like this: under setting [13], 93 % of control; under setting [14], 100 % of control; under setting [15], 97 % of control.
As for `Nc1cccc(OCCOc2cccc(S(=O)(=O)F)c2)c1`, the T/C is, setting by setting: under setting [1], 95 % of control; under setting [2], 93 % of control; under setting [3], 90 % of control.
As to `COc1cccc(C2CCCCC2OS(=O)(=O)c2ccc(C)cc2)c1` (configuration not stated), the T/C runs as follows: (dose: 100.0 mg/kg/injection, schedule: Q01DX001 (ip), vehicle: steriod suspending solution) 106 % of control; (dose: 200.0 mg/kg/injection, schedule: Q01DX001 (ip), vehicle: steriod suspending solution) 101 % of control; (dose: 400.0 mg/kg/injection, schedule: Q01DX001 (ip), vehicle: steriod suspending solution) 91 % of control.
As for `FC(F)/C=C\c1ccccc1`, the T/C was 103 % of control (dose: 75.0 mg/kg/injection, schedule: Q01DX001 (ip), vehicle: other); 105 % of control (dose: 150.0 mg/kg/injection, schedule: Q01DX001 (ip), vehicle: other); 111 % of control (dose: 300.0 mg/kg/injection, schedule: Q01DX001 (ip), vehicle: other).
Turning to `O=C(/C=C\c1ccc(/C=C/C(=O)Nc2cccc(C3=NCCN3)c2)cc1)Nc1cccc(C2=NCCN2)c1`, the T/C reads like this: (dose: 3.75 mg/kg/injection, schedule: Q01DX Z (ip), vehicle: saline) 107 % of control; (dose: 7.5 mg/kg/injection, schedule: Q01DX Z (ip), vehicle: saline) 120 % of control; (dose: 15.0 mg/kg/injection, schedule: Q01DX Z (ip), vehicle: saline) 122 % of control; (dose: 30.0 mg/kg/injection, schedule: Q01DX Z (ip), vehicle: saline) 184 % of control; (dose: 60.0 mg/kg/injection, schedule: Q01DX Z (ip), vehicle: saline) 189 % of control; (dose: 120.0 mg/kg/injection, schedule: Q01DX Z (ip), vehicle: saline) 182 % of control. Where the note is “dose: 240.0 mg/kg/injection, schedule: Q01DX Z (ip), vehicle: saline”, the T/C is 167 % of control.
Regarding `CN1CCN(Cc2cc(Cl)c3cccnc3c2O)CC1`, the T/C is 100 % of control (dose: 75.0 mg/kg/injection, schedule: Q01DX001 (ip), vehicle: saline) and 106 % of control (dose: 150.0 mg/kg/injection, schedule: Q01DX001 (ip), vehicle: saline).
As for `CC12CCC3(CC1CC/C(=C\c1ccco1)C2=O)OCCO3` (configuration not stated), the T/C by setting is: under setting [1], 101 % of control; under setting [10], 108 % of control; under setting [2], 92 % of control; under setting [11], 95 % of control; under setting [3], 97 % of control; under setting [12], 98 % of control.
Take `CC1(c2cccc3ccccc23)OCC2(CCC2)CO1`: the T/C by setting is: (dose: 100.0 mg/kg/injection, schedule: Q01DX001 (ip), vehicle: Klucel (hydroxypropylcellulose) (HPC)) 102 % of control; (dose: 200.0 mg/kg/injection, schedule: Q01DX001 (ip), vehicle: Klucel (hydroxypropylcellulose) (HPC)) 98 % of control; (dose: 400.0 mg/kg/injection, schedule: Q01DX001 (ip), vehicle: Klucel (hydroxypropylcellulose) (HPC)) 100 % of control.
`CC(C)(CBr)C(=O)Cl`: the T/C was 101 % of control under setting [1], 106 % of control under setting [2] and 101 % of control under setting [3].
In the case of `CCCCCCCCCCCCCCCC(=O)OCc1cc(=O)c(O)co1`, the T/C was 95 % of control under setting [13]; 91 % of control under setting [7]; 101 % of control under setting [14]; 94 % of control under setting [8]; 97 % of control under setting [15]; 94 % of control under setting [9].
